Consider 2 compounds from US7273716B2 (priority 2003, dated 2007).

Data set [1] concerns Cat A+ and Cat A- human primary fibroblasts. The experiment in a line: Metabolism of acyclic nucleotide phosphonate prodrugs in Cat A+/- fibroblasts. The conditions noted are these: 10 μM 14C-labeled Compound K, 37° C., 15-240 min.
The target in another data set is T1, GS-7340 ester hydrolase (Homo sapiens, UniProt P10619).
T1 construct: Fresh human PBMCs are obtained from patients undergoing leukophoresis; from tissue; host or cells: human peripheral blood mononuclear cells (PBMC extract, purified by Q15, Butyl Sepharose HIC and Con A chromatography)
T1 sequence (P10619 29-326 limits assumed): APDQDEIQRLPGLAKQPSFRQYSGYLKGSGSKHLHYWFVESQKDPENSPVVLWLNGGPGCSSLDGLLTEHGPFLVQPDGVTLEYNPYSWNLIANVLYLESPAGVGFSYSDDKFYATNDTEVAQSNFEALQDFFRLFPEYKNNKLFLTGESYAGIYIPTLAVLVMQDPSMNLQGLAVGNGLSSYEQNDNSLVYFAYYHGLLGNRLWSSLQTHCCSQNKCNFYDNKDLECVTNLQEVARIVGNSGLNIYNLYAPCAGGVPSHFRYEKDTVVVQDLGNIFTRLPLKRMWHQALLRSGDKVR
T1 sequence (P10619 327-480 limits assumed): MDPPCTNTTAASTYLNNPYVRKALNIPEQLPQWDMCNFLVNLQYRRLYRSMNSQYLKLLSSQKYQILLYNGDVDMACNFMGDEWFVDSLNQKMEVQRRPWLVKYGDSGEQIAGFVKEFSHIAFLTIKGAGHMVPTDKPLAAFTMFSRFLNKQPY
The experiment in a line: biochemical.

On to `C=C(OC(C)C)[C@H](C)N[P@](=O)(CO[C@H](C)Cn1cnc2c(C)ncnc21)Oc1ccccc1` [Compound K], for which, in data set [1], the “concentration of metabolites in Cat A+ control fibroblasts relative to Cat A- (galactosialidosis) fibroblasts” value is 6-9 times.

Broadly, the IC50 is the concentration that inhibits the measured activity by half. The low end stands for greater potency, the high end for weaker potency. Take `O=c1oc(Cl)c(Cl)c2ccccc12` [3,4-dichloroisocoumarin, 3,4 dichloroisocoumarin]: on GS-7340 ester hydrolase, the half-inhibitory concentration (IC50) stood at 0.5 µM.
